Data reported in US20250163119A1, “COMPOUNDS FOR THE TREATMENT OF DIABETES OR OBESITY” (Eli Lilly and Company, priority 2023, published 2025).
“And” between values parts separate entries of the source, which are not always exact repeats. Identical values can stand only once. Like-named read-outs stand apart in the source and are kept apart here. One block for each compound: values may come before it. *1 amine or outer side, *2 acyl side, *3 side chain or, on linkers, in order; H or OH if unused. Where a SMILES comes first, the peptide text is derived from it. Side-chain parts run from the residue outwards. [ ]: non-standard residue; d: D form. The star is where a group is joined. C20 diacid = O=C(O)CCCCCCCCCCCCCCCCCCC(=O)*; γGlu = O=C(O)[C@H](CCC(=O)[*:2])N[*:1]; NMeI = CC[C@H](C)[C@H](NC)C(=O)O; αMeL = CC(C)C[C@](C)(N)C(=O)O; AEEA = NCCOCCOCC(=O)O

Assays:
[1] = Pharmacokinetics in Sprague Dawley rats, single subcutaneous or intravenous dose (incl. 10, 30, 100 nmol/kg dose response); format: in vivo
[2] = system: MHC-II presented peptides on human dendritic cells; experiment: MAPPS assay (MHC-Associated Peptide Proteomics); format: cell-based; conditions: for peptides displayed on MHC-II complexes: human dendritic cells from normal donors; for immunogenicity compared with SEQ ID NO:54: in the MAPPs assay and/or the T cell proliferation assay
Protocol: MAPPS profiles the MHC-II presented peptides on human dendritic cells treated with tested molecules. CD14+ cells, isolated from the PBMCs of normal human donors, were cultured and differentiated into immature DCs by incubation with IL-4 and GM-CSF. On day 4, culture media was replaced with fresh media containing tested molecules. On day 5, LPS was added to transform the cells into mature DCs. On day 6, cells were lysed in RIPA buffer with protease inhibitors. Immunoprecipitation of MHC-II complexes were performed using biotinylated anti-MHC-II antibody coupled to streptavidin beads. The bound complex was eluted and filtered. The isolated MHC-II peptides were analyzed by a mass spectrometer. Peptide identifications were generated by an internal proteomics pipeline using search algorithms with no enzyme and a bovine/human database with test sequences appended to the database. A KNIME workflow was used to process the identification files from the samples. Peptides identified from the test articles were aligned against the parent sequence of the test molecule. The output was used to determine the percentage of donors displaying MHC-II peptides from regions of the test molecule. Polypeptides comprising SEQ ID NOs:54, 49, 50, 29, 41, 45, 1, 22, 25 were tested in the MAPPs assay. […] Depending on the donors, up to three major clusters were observed, each slightly shifted from the others, altogether spanning residues 1-33.

[3] = male, Sprague Dawley, rat, plasma, iv, 196 nmol/kg, single intravenous dose 196 nmol/kg, individual animal
[4] = male, Sprague Dawley, rat, plasma, iv, 196 nmol/kg, single intravenous dose 196 nmol/kg, mean
[5] = single intravenous dose 196 nmol/kg, male Sprague Dawley rats, individual animal
[6] = single subcutaneous dose 196 nmol/kg, male Sprague Dawley rats, individual animal
[7] = donors displaying MHC-II peptides / donors tested
[8] = percentage of donors displaying MHC-II peptides
[9] = male, Sprague Dawley, rat, plasma, iv, 201 nmol/kg, single intravenous dose 201 nmol/kg, individual animal
[10] = male, Sprague Dawley, rat, plasma, iv, 201 nmol/kg, single intravenous dose 201 nmol/kg, mean
[11] = single intravenous dose 201 nmol/kg, male Sprague Dawley rats, individual animal
[12] = single subcutaneous dose 201 nmol/kg, male Sprague Dawley rats, individual animal

clearance [1, 3]: 4.72 mL/h/kg
half-life [1, 3]: 17.8 h
clearance [1, 4]: 4.15 mL/h/kg
half-life [1, 4]: 20.4 h
half-life ([1]; male, Sprague Dawley, rat, plasma, sc, 196 nmol/kg, single subcutaneous dose 196 nmol/kg, individual animal): 19.1 h
CL/F ([1]; male, Sprague Dawley, rat, plasma, sc, 196 nmol/kg, single subcutaneous dose 196 nmol/kg, individual animal, read-out: CL/F (converted)): 11.5 mL/h/kg
half-life ([1]; male, Sprague Dawley, rat, plasma, sc, 196 nmol/kg, single subcutaneous dose 196 nmol/kg, mean): 18.4 h
CL/F ([1]; male, Sprague Dawley, rat, plasma, sc, 196 nmol/kg, single subcutaneous dose 196 nmol/kg, mean, read-out: CL/F (converted)): 10.6 mL/h/kg
Tmax ([1]; male, Sprague Dawley, rat, plasma, sc, 196 nmol/kg, single subcutaneous dose 196 nmol/kg, mean, read-out: Tmax): 18 h
AUC0-inf ([1]; rat, plasma, sc, single subcutaneous dose 196 nmol/kg, male Sprague Dawley rats, mean, read-out: AUC0-inf): 18.9 µM·h
Cmax ([1]; rat, plasma, sc, single subcutaneous dose 196 nmol/kg, male Sprague Dawley rats, mean, read-out: Cmax): 394 nM
AUC0-inf ([1]; rat, plasma, single intravenous dose 196 nmol/kg, male Sprague Dawley rats, mean, read-out: AUC0-inf): 47.7 µM·h
C0 ([1]; rat, plasma, single intravenous dose 196 nmol/kg, male Sprague Dawley rats, mean, read-out: C0): 2840 nM
CL [1, 5]: 3.69 mL/h/kg and 4.05 mL/h/kg
T1/2 [1, 5]: 21.7 h and 21.6 h
CL/F [1, 6]: 8.76 mL/h/kg and 11.4 mL/h/kg
T1/2 [1, 6]: 16.0 h and 20.2 h
Tmax [1, 6]: 24 h and 6 h
MAPPS Assay >10 donors with diverse MHC [2, 7]: 6/26
MAPPS Assay >10 donors with diverse MHC [2, 8]: 23%
Compound: CC[C@H](C)[C@H](NC)C(=O)N[C@H](C(=O)N[C@H](C(=O)N[C@@H](CO)C(=O)N[C@@H](CC(C)C)C(=O)N[C@@H](CC(=O)O)C(=O)N[C@H](C(=O)N1CCC[C@H]1C(=O)N[C@H](C(=O)NCC(=O)N[C@@](C)(CC(C)C)C(=O)N[C@@H](CC(C)C)C(=O)N[C@@H](CCC(N)=O)C(=O)N[C@@H](CCCCN)C(=O)N[C@@H](CC(C)C)C(=O)N[C@H](C(=O)N[C@@H](CCC(=O)O)C(=O)N[C@@H](CCC(N)=O)C(=O)N[C@@H](CCC(=O)O)C(=O)N[C@@H](CCCCN)C(=O)N[C@@H](CCC(N)=O)C(=O)N[C@@H](CCC(=O)O)C(=O)N[C@@H](CCCCN)C(=O)N[C@@H](CCC(=O)O)C(=O)N[C@@H](CCCCN)C(=O)N[C@@H](CCC(N)=O)C(=O)N[C@@H](CCC(N)=O)C(=O)N[C@@H](C)C(=O)N[C@@H](CCCCNC(=O)COCCOCCNC(=O)COCCOCCNC(=O)CC[C@H](NC(=O)CCCCCCCCCCCCCCCCCCC(=O)O)C(=O)O)C(=O)N[C@@H](CCC(=O)O)C(=O)N[C@@H](CC(N)=O)C(=O)N[C@H](C(=O)N[C@@H](CCC(=O)O)C(=O)N[C@H](C(=O)N[C@@H](CC(C)C)C(=O)N[C@@H](C)C(=O)N[C@@H](CCC(N)=O)C(=O)N[C@H](C(N)=O)C(C)C)[C@@H](C)CC)[C@@H](C)O)[C@@H](C)CC)[C@@H](C)CC)C(C)C)[C@@H](C)O)C(C)C [SEQ ID NO: 49, (NMeI) VTSLDVPIG αMeL LQKLIEQEKQEKEKQQAK((2-[2-(2-Amino-ethoxy)-ethoxy]-acetyl)2-γE-CO-(CH2)18-CO2H)ENTEILAQV-NH2] (H-[NMeI]VTSLDVPIG[αMeL]LQKLIEQEKQEKEKQQAK([AEEA-AEEA-γGlu-C20 diacid])ENTEILAQV-NH2)
AUC0-inf [1, 5]: 41.5 µM·h and 53.1 µM·h and 48.4 µM·h
C0 [1, 5]: 2790 nM and 2610 nM and 3110 nM
AUC0-inf [1, 6]: 17.1 µM·h and 22.4 µM·h and 17.3 µM·h
Cmax [1, 6]: 340 nM and 474 nM and 367 nM
peptides displayed on MHC-II complexes [2]: at least one peptide cluster on MHC-II complexes in a subset of donors
immunogenicity compared with SEQ ID NO:54 [2]: substantial improvements in immunogenicity over a compound comprising SEQ ID NO:54

clearance [1, 9]: 3.37 mL/h/kg
half-life [1, 9]: 20.3 h
clearance [1, 10]: 2.93 mL/h/kg
half-life [1, 10]: 19.2 h
half-life ([1]; male, Sprague Dawley, rat, plasma, sc, 201 nmol/kg, single subcutaneous dose 201 nmol/kg, individual animal): 19.7 h
CL/F ([1]; male, Sprague Dawley, rat, plasma, sc, 201 nmol/kg, single subcutaneous dose 201 nmol/kg, individual animal, read-out: CL/F (converted)): 7.55 mL/h/kg
Tmax ([1]; male, Sprague Dawley, rat, plasma, sc, 201 nmol/kg, single subcutaneous dose 201 nmol/kg, individual animal, read-out: Tmax): 24 h
half-life ([1]; male, Sprague Dawley, rat, plasma, sc, 201 nmol/kg, single subcutaneous dose 201 nmol/kg, mean): 17.1 h
CL/F ([1]; male, Sprague Dawley, rat, plasma, sc, 201 nmol/kg, single subcutaneous dose 201 nmol/kg, mean, read-out: CL/F (converted)): 7.53 mL/h/kg
Tmax ([1]; male, Sprague Dawley, rat, plasma, sc, 201 nmol/kg, single subcutaneous dose 201 nmol/kg, mean, read-out: Tmax): 24 h
AUC0-inf ([1]; rat, plasma, sc, single subcutaneous dose 201 nmol/kg, male Sprague Dawley rats, mean, read-out: AUC0-inf): 26.8 µM·h
Cmax ([1]; rat, plasma, sc, single subcutaneous dose 201 nmol/kg, male Sprague Dawley rats, mean, read-out: Cmax): 552 nM
AUC0-inf ([1]; rat, plasma, single intravenous dose 201 nmol/kg, male Sprague Dawley rats, mean, read-out: AUC0-inf): 69.2 µM·h
C0 ([1]; rat, plasma, single intravenous dose 201 nmol/kg, male Sprague Dawley rats, mean, read-out: C0): 5290 nM
CL [1, 11]: 2.71 mL/h/kg and 2.72 mL/h/kg
T1/2 [1, 11]: 18.3 h and 19.0 h
CL/F [1, 12]: 8.03 mL/h/kg and 7.01 mL/h/kg
T1/2 [1, 12]: 14.9 h and 16.7 h
MAPPS Assay >10 donors with diverse MHC [2, 7]: 3/10
MAPPS Assay >10 donors with diverse MHC [2, 8]: 30%
Compound: CC[C@H](C)[C@H](NC)C(=O)N[C@H](C(=O)N[C@H](C(=O)N[C@@H](CO)C(=O)N[C@@H](CC(C)C)C(=O)N[C@@H](CC(=O)O)C(=O)N[C@H](C(=O)N1CCC[C@H]1C(=O)N[C@H](C(=O)NCC(=O)N[C@@](C)(CC(C)C)C(=O)N[C@@H](CC(C)C)C(=O)N[C@@H](CCC(N)=O)C(=O)N[C@@H](CCCCN)C(=O)N[C@@H](CC(C)C)C(=O)N[C@@H](CC(C)C)C(=O)N[C@@H](CCC(=O)O)C(=O)N[C@@H](CCC(N)=O)C(=O)N[C@@H](CCC(=O)O)C(=O)N[C@@H](CCCNC(=N)N)C(=O)N[C@@H](C)C(=O)N[C@@H](CCC(=O)O)C(=O)N[C@@H](CCCCN)C(=O)N[C@@H](C)C(=O)N[C@@H](CCCNC(=N)N)C(=O)N[C@@H](CCC(N)=O)C(=O)N[C@@H](CCC(N)=O)C(=O)N[C@@H](C)C(=O)N[C@@H](CCCCNC(=O)COCCOCCNC(=O)COCCOCCNC(=O)CC[C@H](NC(=O)CCCCCCCCCCCCCCCCCCC(=O)O)C(=O)O)C(=O)N[C@@H](CCC(=O)O)C(=O)N[C@@H](C)C(=O)N[C@@H](C)C(=O)N[C@@H](CCC(=O)O)C(=O)N[C@H](C(=O)N[C@@H](CC(C)C)C(=O)N[C@@H](C)C(=O)N[C@@H](CCC(N)=O)C(=O)N[C@H](C(N)=O)C(C)C)[C@@H](C)CC)[C@@H](C)CC)C(C)C)[C@@H](C)O)C(C)C [SEQ ID NO: 50, (NMeI) VTSLDVPIG αMeL LQKLLEQERAEKARQQAK((2-[2-(2-Amino-ethoxy)-ethoxy]-acetyl)2-γE-CO-(CH2)18-CO2H)EAAEILAQV-NH2] (H-[NMeI]VTSLDVPIG[αMeL]LQKLLEQERAEKARQQAK([AEEA-AEEA-γGlu-C20 diacid])EAAEILAQV-NH2)
AUC0-inf [1, 11]: 59.6 µM·h and 74.2 µM·h and 73.9 µM·h
C0 [1, 11]: 5560 nM and 4360 nM and 5960 nM
AUC0-inf [1, 12]: 26.7 µM·h and 25.1 µM·h and 28.7 µM·h
Cmax [1, 12]: 577 nM and 460 nM and 618 nM
peptides displayed on MHC-II complexes [2]: at least one peptide cluster on MHC-II complexes in a subset of donors
immunogenicity compared with SEQ ID NO:54 [2]: substantial improvements in immunogenicity over a compound comprising SEQ ID NO:54
